The structures appear in SMILES notation.

The subject of this assay is L. crispatus and E. coli. The experiment in a line: Therapeutic effect protocol: L. crispatus / E. coli co-culture in LAPT-g media supplemented with therapeutic agents. In kind it is cell-based. To be noted: anaerobic, 37° C., measured 36 hours after inoculation, agent w/vol % as given per sample. The protocol:
Therapeutic Effect Protocol
Colonies of L. crispatus and E. coli were prepared as follows. A colony of L. crispatus was transferred to 7 ml MRS broth and incubated anaerobically (using BD GasPak EZ anaerobe container system with indicator) at 37° C. without shaking for 18-20 hours. A colony of E. coli was transferred to 5 ml TSB broth and incubated aerobically (shaking at 100 rpm) at 37° C. for 18-20 hours.
Colonies were then inoculated as follows. Bacterial cultures were gently vortexed and 1 mL of each culture was transferred to a corresponding 2.0 mL micro-centrifuge tube and then centrifuged for two minutes at 14,500 rpm. The cultural supernatant was removed and the cell pellet was re-suspended in 1 mL of 0.95% (wt/vol %) saline. The re-suspended colony was then centrifuged for two minutes at 14,500 rpms and the supernatant was removed. For L. crispatus, the pellet was re-suspended in 1 mL of 0.95% saline to achieve ˜10^7-10^8 cfu/mL. For E. coli the pellet was re-suspended in 1 mL of 0.95% saline to achieve ˜10^8-10^9 cfu/mL.
Media were prepared as follows.
All of the ingredients in Table 1 were combined and the pH was adjusted to 6.5. The media were then autoclaved for 20 minutes at 125° C. To evaluate the effect of various therapeutic agents on the growth of bacteria the LAPT-g media, prepared as described above, was supplemented with various therapeutic agents to a final test concentration between 0.1 and 1.0%.
Five milliliters (5 mL) of each medium was transferred to a test tube in duplicates for subsequent inoculation. A master mixture of L. crispatus and E. coli, prepared as described above, was prepared in 1,000:1 ratio. Each (5 ml) test tube was inoculated with the master mixture to give 10^5-10^6 total CFU L. crispatus and 100-1,000 total CFU E. coli per tube.
To establish a negative control, one tube was vortexed and 100 μL was removed to determine the initial cell concentrations by serial dilutions and plating (2 plates per dilution). L. crispatus is selected on MRS agar plates incubated anaerobically at 37° C. for two days. E. coli is selected on TSA plates incubated aerobically at 37° C. for one day. The co-cultures were incubated in an anaerobic container with BD GasPaks at 37° C. for 36 hours.
The effect of the carbon source on the ratio of L. crispatus to E. coli was measured 36 hours after inoculation. The co-culture tube was vortexed and 100 μL was removed to determine the final cell concentrations by serial dilutions and plating (2 plates per dilution). L. crispatus is selected on MRS agar plates incubated anaerobically at 37° C. for two days. E. coli is selected on TSA plates incubated aerobically at 37° C. for one day.
Inventive samples were prepared by supplementing LAPT-g media, prepared as described above, with various therapeutic agents as described in Table 2, below. The therapeutic effect of the formulation was then measured using the assay described above in the Test Methods section above. The therapeutic effect is summarized below as the ratio of L. crispatus to E. coi.

With `CO[C@H]1O[C@H](CO)[C@@H](O)[C@H](O)[C@H]1O` [Sample 22, α-Methyl-D-Glucoside], the “L. crispatus/E. coli ratio” value amounted to 3.

In the case of `OC[C@H]1O[C@@H]2O[C@H]3[C@H](O)[C@@H](O)[C@@H](O[C@H]4[C@H](O)[C@@H](O)[C@@H](O[C@H]5[C@H](O)[C@@H](O)[C@@H](O[C@H]6[C@H](O)[C@@H](O)[C@@H](O[C@H]7[C@H](O)[C@@H](O)[C@@H](O[C@H]1[C@H](O)[C@H]2O)O[C@@H]7CO)O[C@@H]6CO)O[C@@H]5CO)O[C@@H]4CO)O[C@@H]3CO` [Sample 23, α-Cyclodextrin], the “L. crispatus/E. coli ratio” value is given as 6.5.

Consider `O=C[C@@H](O)[C@H](O)[C@H](O)CO` [Sample 24, D-Arabinose], for which the “L. crispatus/E. coli ratio” value was found to be 2.2.

In the case of `O=C(O)CC(O)C(=O)O` (centres unmarked) [Sample 29, Malic acid], the “L. crispatus/E. coli ratio” value is 30.7. The value for `O=CC[C@H](O)[C@H](O)CO` [Sample 21, 2-Deoxy-D-Ribose] was 1.7; that for `O.O.OC[C@H]1O[C@H](O[C@H]2O[C@H](CO)[C@@H](O)[C@H](O)[C@H]2O)[C@H](O)[C@@H](O)[C@@H]1O` [Sample 26, D-Trehalose] was 30.1. The value for `OCc1ccccc1O[C@@H]1O[C@H](CO)[C@@H](O)[C@H](O)[C@H]1O` [Sample 32, Salicin] was 1.5; that for `OC[C@H]1O[C@@H](O[C@@H]2[C@@H](CO)OC(O)(CO)[C@H]2O)[C@H](O)[C@@H](O)[C@H]1O` (mixture of isomers) [Sample 28, Lactulose] was 3.9.
